In patent publication US9018174B2, “Mouse model and treatment of hereditary inclusion body myopathy” (HIBM Research Group, Inc., priority 2008, dated 2015):
Substitutions are numbered along the chain they refer to. Where “and” joins values, the source holds several entries; their conditions need not be identical. Equal values may be shown once. Entries after “also recorded” stand apart in the source; their conditions may differ.

What was measured:
[1] = tested on: GNE-M712T knock-in mice; test: Rescue of GNE-M712T knock-in mice by ManNAc feeding (survival of homozygous pups); type: in vivo, mouse
Method: GNE-M712T mice. GNE-M712T knock-in mice were generated by targeting the M712T (ATG>ACG) mutation exon 12 of the murine GNE gene (Uae1, Gne, GenBank NM_015828). The mutant mice were maintained in the C57BL/6J background. Animals were housed in ventilated cages in a temperature- and light-controlled environment (22° C., 30-70% humidity, 12-hour light/12-hour dark cycle) and were fed irradiated chow (Prolab 5P75 Isopro 3000; PMI Nutrition International) and water ad libitum. All euthanasia was performed with by CO2 followed by cervical dislocations. For Mendelian distribution studies, four pregnant mice E17-19 were euthanized and embryos were retrieved by cesarean section and euthanized by decapitation. All mouse procedures were performed in accordance with protocol G04-3 approved by the Institutional Animal […] and Use Committee of the National Human Genome Research Institute, National Institutes of Health Institutional Review Board.
(§1) ManNAc administration. Breeding pairs of 6-week-old +/− mice were divided into three groups. Group I consisted of 9 +/− breeding pairs who were administered untreated sterilized tap water. Group II consisted of one breeding pair of +/+ mice (wild-type control) and 6 +/− breeding pairs who were administered 1 mg/ml ManNAc (Sigma) supplemented water. Group III consisted of one +/+ breeding pair and 7 +/− breeding pairs who were administered 5 mg/ml ManNAc supplemented water. Water was changed twice weekly. Nursing females continued to be supplied with ManNAc. All mice were weaned from ManNAc at 21 days. Selected whole litters were sacrificed at age P2 or P6 for histological, genetic, biochemical or ultrastructural analysis.
Statistical analysis. Differences in genotype distribution (+/+: +/−-−/−) between an untreated control group and ManNAc treated group were tested by a two-tailed Fisher's exact test. To this end a 2×3 table was generated.

[2] = tested on: GNE-M712T knock-in mice; test: Tissue histology and electron microscopy of ManNAc treated -/- mice at P6; type: in vivo, mouse; settings: age P6
Method: Mouse Histology. Mouse tissues were collected, formalin-fixed and paraffin-embedded. Tissue sections (5 μm) were prepared and stained with hematoxylin and eosin following standard procedures (American Histolabs) or subjected to immunohostochemistry with a variety of primary antibodies. Formalin fixed tissues were deparafinized in Histoclear II (National Diagnostics), […] in a series of ethanol solutions. Antigen retrieval was performed for sections to be stained with the antibodies GNE/MNK (5 min boiling in citric acid based solution; Vector Laboratories) and dystrophin (boiling in 1 mM EDTA, according the manufacturer's protocol; AbCam). The sections were blocked (2% BSA, 10% donkey serum and 0.1% Triton X-100 in PBS) and incubated with primary antibodies (GNE/MNK 1:50; laminin 1:25; dystrophin 1:50) overnight at 4° C., followed by the secondary antibody Alexa 488 donkey-anti-rabbit (1:500 in blocking solution) (Invitrogen). The sections were mounted in Vectashield (Vector Laboratories) and viewed and digitally imaged with a Zeiss Axiovert 200M microscope (Carl Zeiss, Microimaging).
Electron Microscopy. […] The grids were viewed with a Philips 410 electron microscope (FEI Company) at 80 kV and images were recorded on Kodak SO-163 film (Kodak). […]

[3] = target: T1, UDP-GlcNAC 2-epimerase (GNE) (Mus musculus, UniProt Q91WG8); test: GNE/MNK epimerase enzymatic assay on tissue after ManNAc feeding; type: in vivo; settings: +/+ mice, skeletal muscle, age P2, ManNAc treatment, n=3
T1 construct: Mouse kidney and skeletal muscle (hindlimb quadriceps) tissues were homogenized; from tissue; host or cells: skeletal muscle and kidney of GNE-M712T knock-in mice (C57BL/6J), age P2
T1 sequence (Q91WG8 1-722): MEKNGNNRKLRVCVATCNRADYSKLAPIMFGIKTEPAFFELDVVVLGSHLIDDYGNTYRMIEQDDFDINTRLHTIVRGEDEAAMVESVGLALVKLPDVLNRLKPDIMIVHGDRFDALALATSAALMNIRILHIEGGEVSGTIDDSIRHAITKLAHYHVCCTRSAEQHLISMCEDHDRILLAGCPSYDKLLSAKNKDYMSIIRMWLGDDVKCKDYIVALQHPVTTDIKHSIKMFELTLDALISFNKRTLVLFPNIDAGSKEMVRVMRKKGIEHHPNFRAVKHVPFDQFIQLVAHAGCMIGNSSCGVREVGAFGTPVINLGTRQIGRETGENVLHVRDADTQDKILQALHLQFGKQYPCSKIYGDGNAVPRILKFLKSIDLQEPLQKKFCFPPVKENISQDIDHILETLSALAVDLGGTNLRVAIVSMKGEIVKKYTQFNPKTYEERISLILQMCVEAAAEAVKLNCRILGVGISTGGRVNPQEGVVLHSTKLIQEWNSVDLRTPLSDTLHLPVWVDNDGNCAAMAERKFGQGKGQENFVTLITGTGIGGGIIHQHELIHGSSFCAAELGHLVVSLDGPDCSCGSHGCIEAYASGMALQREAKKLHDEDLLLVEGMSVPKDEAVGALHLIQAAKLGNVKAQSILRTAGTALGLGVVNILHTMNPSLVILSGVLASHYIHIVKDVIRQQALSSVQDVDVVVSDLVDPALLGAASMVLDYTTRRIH
Method: as §1
(§2) GNE/MNK enzymatic assays. Mouse kidney and skeletal muscle (hindlimb quadriceps) tissues were homogenized and subjected to the GNE/MNK epimerase enzymatic assay as described^11,44. This assay is based on incubation with radiolabeled substrate (UDP-[^3H]GlcNAc; American Radiolabeled Chemicals), and detection of radiolabeled product ([^3H]ManNAc) upon separation of oligosaccharides by high pH anion-exchange chromatography with pulsed amperometric detection (Dionex).

[4] = target: T2, UDP-GlcNAC 2-epimerase (GNE) (Mus musculus, UniProt Q91WG8, M712T); test: as above; type: in vivo; settings: -/- mice, skeletal muscle, age P2, ManNAc treatment, n=7; untreated -/- 19%
T2 construct: Mouse kidney and skeletal muscle (hindlimb quadriceps) tissues were homogenized; from tissue; host or cells: skeletal muscle and kidney of GNE-M712T knock-in mice (C57BL/6J), age P2
T2 sequence (Q91WG8 1-722 M712T): T1 sequence (Q91WG8 1-722) with M712T
Method: as §1, §2

[5] = target: T3, GNE/MNK protein (Mus musculus, UniProt Q91WG8, M712T); test: Immunoblot with anti-GNE/MNK antibodies of muscle and kidney extracts after ManNAc feeding; type: in vivo; settings: ManNAc treated, referenced to β-actin, untreated -/- 78% decreased
T3 construct: Mouse kidney and skeletal muscle (hindlimb quadriceps) tissues were homogenized; from tissue; host or cells: skeletal muscle and kidney of GNE-M712T knock-in mice (C57BL/6J), age P2
T3 sequence (Q91WG8 1-722 M712T): T1 sequence (Q91WG8 1-722) with M712T
Text: (§3) Antibodies. A rabbit polyclonal antibody was custom prepared against a GNE/MNK peptide comprising amino acids 588-607: […] (SEQ ID NO:24), coupled to keyhole limpet hemocyanine (KLH) and affinity-purified against the corresponding antigenic peptide (Covance). Other primary antibodies were commercially obtained: dystrophin (ab15277, AbCam), α-dystroglycan (IIH6, Upstate Biotechnology), laminin (L9393, Sigma-Aldrich), podocalyxin (PODX15-A, Alpha Diagnostic International), PSA-NCAM (MAB5324, Chemicon), and β-actin (AAN01, Cytoskeleton).
(§4) Western blotting. Mouse tissues (age P2) were extracted, homogenized in CelLytic buffer, consisting of a mild detergent, bicine buffer and 150 mM NaC (CelLytic) supplemented with protease inhibitors (Complete Minia, Roche). The lysates were sonicated and cleared by centrifugation (1000 g for 10 min), and the resulting supernatants were assayed for protein concentration (BCA protein assay, Pierce). For the neuraminidase enzymatic treatments, protein homogenates (25 μg) were incubated with 1 mU/μg of Neuraminidase (N-6514, Sigma) for 30 min at 37° C. Equal amounts of protein (25-50 μg) were electrophoresed on 4-12% Tris-Glycine gels (Novex, Invitrogen), and electroblotted onto 0.45 μm Hybond ECL nitrocellulose membranes (Amersham Pharmacia Biotech). […]

[6] = tested on: PSA-NCAM; test: Immunoblot with PSA-NCAM antibodies of brain tissue after ManNAc feeding; type: in vivo, mouse; settings: n=14 pre treatment, n=10 post treatment, p=0.08
Text: as §3, §4

[7] = tested on: podocalyxin; test: Immunoblot of podocalyxin sialylation in kidney extracts after ManNAc feeding; type: in vivo, mouse; settings: -/- kidneys
Text: as §3, §4

[8] = tested on: GNE-deficient mouse embryonic stem cells; settings: growth medium supplemented with ManNAc; cited from earlier work
[9] = tested on: cultured cells; settings: SiaLev or SiaNAz as downstream product; cited from earlier work
[10] = ManNAc 1 g/kg/day to +/- breeding pairs

SMILES | surviving homozygous mice beyond age P3 ([1]; 1 mg/ml ManNAc in drinking water during matings of +/- mice, 51 offspring) | homozygous pups surviving beyond P3, % of total -/- pups ([1]; 5 mg ManNAc/ml in drinking water) [%] | number of homozygous pups that survived beyond P3 ([1]; 5 mg ManNAc/ml in drinking water, out of 97 newborn pups) | homozygous mice that survived past P21 ([1]; 5 mg ManNAc/ml in drinking water, supplementation ceased at P21) | -/- offspring that survived past P3 [1, 10] [%] | survivors past P3 that lived past weaning age P21 [1, 10] [%] | effect on survival of homozygous pups ([1]; administration of ManNAc to pregnant mothers) | abnormalities in liver, heart and skeletal muscle tissues [2] | kidney histology [2] | GNE activity in +/+ muscle, relative to untreated +/+ set at 100% [3] | residual GNE activity in -/- muscle, relative to untreated +/+ set at 100% [4] | decreased amount of GNE/MNK protein compared to +/+ littermates [5] | increased PSA-NCAM signal compared to untreated -/- tissues [6] | podocalyxin sialylation status [7] | sialylation of hyposialylated cells [8] | incorporation of sialic acid analogs into cell surface glycoconjugates [9]
CC(=O)N[C@@H]1C(O)O[C@H](CO)[C@@H](O)[C@@H]1O (some centres unmarked) [ManNAc, N-acetylmannosamine] | did not yield any surviving homozygous mice beyond age P3 | 44 | 11 | Two | 42 | 18 | remarkably salutary effect on survival of homozygous pups | No abnormalities | mildly to remarkably improved histological features; also recorded: mildly to significantly improved kidney histology | 114 (±10) % and ~114% | 31 (±9) % and 31% | 41 (±3) % | 2-28% | did not result in a statistically significant increase | became resialylated | –
[N-]=[N+]=NCC(=O)N[C@@H]1C(O)O[C@H](CO)[C@@H](O)[C@@H]1O (some centres unmarked) [ManNAz, N-azidoacetylmannosamine] | – | – | – | – | – | – | – | – | – | – | – | – | – | – | – | resulted in incorporation of the downstream sialic acid analogs
CC(=O)CCC(=O)N[C@@H]1C(O)O[C@H](CO)[C@@H](O)[C@@H]1O (some centres unmarked) [ManLev, N-levulinoylmannosamine] | – | – | – | – | – | – | – | – | – | – | – | – | – | – | – | resulted in incorporation of the downstream sialic acid analogs
